Data published in US6344179B1, “Fluoralkenyl nortropanes” (Emory University, priority 1999, dated 2002).
“And” between values parts separate entries of the source, which are not always exact repeats. Equal values may be shown once. “Also recorded” adds a separate entry of the source. Read-outs that look alike come from different tables or passages of the source.

Legend:
[1] = molecular target: T1, human SERT (Homo sapiens, UniProt P31645); test: Competitive binding in transfected cell lines, [3H]Citalopram
T1 construct: expressed in transfected cells
T1 sequence (P31645 whole entry): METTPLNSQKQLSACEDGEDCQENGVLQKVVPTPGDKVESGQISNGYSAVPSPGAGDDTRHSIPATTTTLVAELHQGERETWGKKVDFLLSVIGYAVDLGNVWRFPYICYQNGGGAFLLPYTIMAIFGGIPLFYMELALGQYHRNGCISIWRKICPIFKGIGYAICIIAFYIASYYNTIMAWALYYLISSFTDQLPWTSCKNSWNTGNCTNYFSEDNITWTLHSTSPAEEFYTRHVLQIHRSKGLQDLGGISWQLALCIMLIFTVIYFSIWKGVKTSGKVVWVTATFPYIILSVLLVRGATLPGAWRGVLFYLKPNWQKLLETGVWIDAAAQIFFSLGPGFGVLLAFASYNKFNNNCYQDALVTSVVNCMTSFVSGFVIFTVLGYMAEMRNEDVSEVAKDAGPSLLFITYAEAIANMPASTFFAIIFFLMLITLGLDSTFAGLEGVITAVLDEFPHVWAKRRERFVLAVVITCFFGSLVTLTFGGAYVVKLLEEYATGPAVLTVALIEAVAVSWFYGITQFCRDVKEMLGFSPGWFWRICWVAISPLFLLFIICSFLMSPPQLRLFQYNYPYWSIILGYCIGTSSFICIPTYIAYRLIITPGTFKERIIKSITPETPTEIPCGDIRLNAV

[2] = molecular target: T2, norepinephrine transporter (Homo sapiens, UniProt P23975); test: Competitive binding in transfected cell lines, [3H]Nisoxetine
T2 construct: expressed in transfected cells
T2 sequence (P23975 whole entry): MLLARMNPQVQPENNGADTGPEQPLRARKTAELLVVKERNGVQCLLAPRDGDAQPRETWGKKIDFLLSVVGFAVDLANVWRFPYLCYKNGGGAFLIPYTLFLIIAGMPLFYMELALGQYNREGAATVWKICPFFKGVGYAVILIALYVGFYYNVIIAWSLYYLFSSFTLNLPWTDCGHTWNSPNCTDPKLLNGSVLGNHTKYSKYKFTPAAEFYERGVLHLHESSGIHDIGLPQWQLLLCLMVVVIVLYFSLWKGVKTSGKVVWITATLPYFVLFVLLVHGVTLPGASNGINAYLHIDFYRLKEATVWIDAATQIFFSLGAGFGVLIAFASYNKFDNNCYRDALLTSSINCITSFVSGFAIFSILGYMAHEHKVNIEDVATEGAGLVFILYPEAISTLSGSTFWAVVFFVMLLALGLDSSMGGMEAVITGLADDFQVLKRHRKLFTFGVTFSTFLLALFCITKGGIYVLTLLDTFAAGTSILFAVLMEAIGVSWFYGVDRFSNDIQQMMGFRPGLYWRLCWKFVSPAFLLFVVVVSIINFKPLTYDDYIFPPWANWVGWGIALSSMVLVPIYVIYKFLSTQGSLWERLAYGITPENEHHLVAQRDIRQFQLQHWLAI

[3] = molecular target: T3, human DAT (Homo sapiens, UniProt Q01959); test: Competitive binding in transfected cell lines, [3H]WIN 35428
T3 construct: expressed in transfected cells
T3 sequence (Q01959 whole entry): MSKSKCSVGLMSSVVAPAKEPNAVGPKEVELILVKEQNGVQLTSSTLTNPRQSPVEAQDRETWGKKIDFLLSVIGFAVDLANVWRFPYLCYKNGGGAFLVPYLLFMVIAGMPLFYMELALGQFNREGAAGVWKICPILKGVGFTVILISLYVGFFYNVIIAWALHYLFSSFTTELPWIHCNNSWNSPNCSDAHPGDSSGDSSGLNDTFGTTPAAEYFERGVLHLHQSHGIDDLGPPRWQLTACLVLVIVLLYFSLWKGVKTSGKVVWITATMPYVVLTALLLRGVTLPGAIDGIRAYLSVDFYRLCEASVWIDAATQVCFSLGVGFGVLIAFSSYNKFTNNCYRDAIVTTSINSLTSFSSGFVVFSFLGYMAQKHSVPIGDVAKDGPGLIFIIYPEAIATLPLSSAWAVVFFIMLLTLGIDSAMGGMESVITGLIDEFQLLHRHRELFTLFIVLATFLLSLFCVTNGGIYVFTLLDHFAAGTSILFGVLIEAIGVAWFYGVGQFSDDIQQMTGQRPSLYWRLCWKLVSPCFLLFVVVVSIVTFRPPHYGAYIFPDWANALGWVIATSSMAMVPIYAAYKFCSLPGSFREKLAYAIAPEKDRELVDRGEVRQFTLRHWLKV

[4] = molecular target: T4, rat brain DAT (Rattus norvegicus, UniProt P23977); test: In vivo selectivity: block with monoamine transporter ligands before [18F]FBCINT in rats; details: 60 minutes
T4 construct: from tissue; host or cells: brain of living male Sprague Dawley rats (striatum, cortex, cerebellum dissected)
T4 sequence (P23977 whole entry): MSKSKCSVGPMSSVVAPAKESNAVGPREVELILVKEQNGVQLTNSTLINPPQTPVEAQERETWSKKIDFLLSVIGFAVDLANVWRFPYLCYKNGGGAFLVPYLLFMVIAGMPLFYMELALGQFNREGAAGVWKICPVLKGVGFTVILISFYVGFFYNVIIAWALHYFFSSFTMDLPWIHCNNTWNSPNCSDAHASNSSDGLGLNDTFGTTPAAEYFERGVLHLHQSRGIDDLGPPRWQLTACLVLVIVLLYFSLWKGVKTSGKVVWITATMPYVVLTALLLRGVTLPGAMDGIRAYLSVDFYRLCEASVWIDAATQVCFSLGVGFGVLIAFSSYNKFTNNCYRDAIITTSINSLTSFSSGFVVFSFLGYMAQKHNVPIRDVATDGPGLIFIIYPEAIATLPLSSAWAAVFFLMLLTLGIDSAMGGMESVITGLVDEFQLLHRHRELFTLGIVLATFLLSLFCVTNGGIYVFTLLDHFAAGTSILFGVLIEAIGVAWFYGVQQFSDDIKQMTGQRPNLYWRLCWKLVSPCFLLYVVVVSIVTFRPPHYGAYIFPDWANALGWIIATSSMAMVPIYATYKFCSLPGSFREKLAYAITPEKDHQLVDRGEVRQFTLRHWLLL
Method: FBCINT. The rats were sacrificed 60 minutes after injection of [^18F] FBCINT and the striatum, cortex, prefrontal cortex, olfactory tubercles and cerebellum were dissected and the uptake of radioactivity determined. The monoamine transporter ligands administered were RTI-113 (DAT), paroxetine (SERT) and reboxetine (NET). […] FBCINT in the DAT transporter rich striatum and olfactory tubercles. […] FBCINT.

[5] = PET brain imaging in a rhesus monkey; format: in vivo
Method: The regional distribution of E-[^18F] […] Dynamic emission data were acquired using a 35 frame acquisition protocol which included twelve 30 second scans, six one minute scans, six 3 minute scans, five 10 minute scans and six 20 minute scans.

[6] = tested on: striatal DAT; test: PET imaging in awake rhesus monkeys; format: in vivo, rhesus monkey
Method: The regional kinetics of [^18F] […] Both [^18F] […] [^18F] […] The peak uptake ratio of striatumwcerebellum was 4:1 at 20 minutes for [^18F] […] 6d. The in vivo ratio of [1^18F] […] FECNT, 5:1. [^18F]

[7] = tested on: striatal DAT; test: Chase (displacement) study with β-CIT, PET in rhesus monkey; format: in vivo; details: for displacement from striatum by β-CIT: PET
Method: A chase study with E-[^18F] FBCINT and β-CIT, a DAT ligand, was also performed in the same rhesus monkey. At 195 minutes p.i. 3.0 mg (0.9 μmol/kg) of β-CIT, was administered intravenously and dynamic imaging was continued for an additional 40 minutes (eight 5 minute scans). […] The displacement of E-[^18F] […] The regional distribution and kinetic behavior of E-[^18F] […] FBFNT (6e) were next compared in the brain of awake rhesus monkeys.

[8] = Stability to metabolism and in vivo loss of fluorine-18
[9] = molecular target: T4, rat brain DAT; test: In vivo specificity: RTI-113 block before the 18F ligand in rats; details: for effect of RTI-113 on uptake in the striatum: RTI-113 5 mg/kg i.v. 15 minutes prior, 60 minutes
Method: To determine the in vivo specificity of FBNT analogs [^18F] […] 6a, 6d and 6e. The rats were sacrificed 60 minutes after injection of [^18F] […] 6a, 6d and 6e, in the DAT transporter rich striatum.

[10] = In vivo regional brain tissue distribution of 18F-labeled ligands in rats; parameters: species or system Sprague Dawley rats; details: rat; for Regional uptake of radioactivity, Cerebellum / Regional uptake of radioactivity, Cortex (Cx) / Regional uptake of radioactivity, Striatum / Uptake of radioactivity, Blood / Uptake of radioactivity, Bone / Uptake of radioactivity, Brain: i.v., 18F-labeled
Description: The in vivo regional brain tissue distribution of [^18F]

[11] = 60 min, 5 mg/kg RTI-113 i.v. 15 minutes prior
[12] = at 120 minutes compared to 5 minutes post injection

COC(=O)[C@H]1[C@@H](c2ccc(Br)cc2)C[C@@H]2CC[C@H]1N2C/C=C/CF [6b, N-((E)-4-=fluorobut-2-en-1-yl)-2β-carbomethoxy-3β-4-(4-bromophenyl)nortropane]
Ki [1]: 0.85 nM
Ki [2]: 91 nM

COC(=O)[C@H]1[C@@H](c2ccc(I)cc2)C[C@@H]2CC[C@H]1N2C/C=C/CF [6c, N-((E)-4-fluorobut-2-en-1-yl)-2β-carbomethoxy-3β-(4-iodophenyl)nortropane]
Ki [1]: 0.21 nM
Ki [3]: 0.17 nM

COC(=O)C1C(c2ccc(Cl)cc2)CC2CCC1N2C/C=C/CF (stereo not drawn) [6d, N-((E)-4-fluorobut-2-en-1-yl)-2β-carbomethoxy-3β-(4-chlorophenyl)nortropane]
effect of GBR 12909 on uptake in striatum and olfactory tubercles ([4]; 5 mg/kg i.v. 15 minutes prior): significantly blocked
effect of SERT and NET blocking agents on regional brain uptake ([4]; 5 mg/kg i.v. 15 minutes prior): no effect
Regional uptake, Cerebellum ([4]; GBR 12909 5 mg/kg i.v.): 0.15 % dose/g
Regional uptake, Cortex (CX) (dry tissue) ([4]; GBR 12909 5 mg/kg i.v.): 0.69 % dose/g
Regional uptake, Olfactory Tubercle (dry tissue) ([4]; GBR 12909 5 mg/kg i.v.): 1.07 % dose/g
Regional uptake, Prefrontal Cx (dry tissue) ([4]; GBR 12909 5 mg/kg i.v.): 1.02 % dose/g
Regional uptake, Striatum (dry tissue) ([4]; GBR 12909 5 mg/kg i.v.): 1.51 % dose/g
Regional uptake, Cerebellum ([4]; No Block): 0.13 % dose/g
Regional uptake, Cortex (CX) (dry tissue) ([4]; No Block): 0.53 % dose/g
Regional uptake, Olfactory Tubercle (dry tissue) ([4]; No Block): 5.26 % dose/g
Regional uptake, Prefrontal Cx (dry tissue) ([4]; No Block): 0.74 % dose/g
Regional uptake, Striatum (dry tissue) ([4]; No Block): 6.96 % dose/g
Regional uptake, Cerebellum ([4]; Paroxetine 5 mg/kg i.v.): 0.10 % dose/g
Regional uptake, Cortex (CX) (dry tissue) ([4]; Paroxetine 5 mg/kg i.v.): 0.46 % dose/g
Regional uptake, Olfactory Tubercle (dry tissue) ([4]; Paroxetine 5 mg/kg i.v.): 5.06 % dose/g
Regional uptake, Prefrontal Cx (dry tissue) ([4]; Paroxetine 5 mg/kg i.v.): 0.67 % dose/g
Regional uptake, Striatum (dry tissue) ([4]; Paroxetine 5 mg/kg i.v.): 4.47 % dose/g
Regional uptake, Cerebellum ([4]; Reboxetine 5 mg/kg i.v.): 0.12 % dose/g
Regional uptake, Cortex (CX) (dry tissue) ([4]; Reboxetine 5 mg/kg i.v.): 0.41 % dose/g
Regional uptake, Olfactory Tubercle (dry tissue) ([4]; Reboxetine 5 mg/kg i.v.): 5.74 % dose/g
Regional uptake, Prefrontal Cx (dry tissue) ([4]; Reboxetine 5 mg/kg i.v.): 0.77 % dose/g
Regional uptake, Striatum (dry tissue) ([4]; Reboxetine 5 mg/kg i.v.): 6.64 % dose/g
striatum (S) uptake by PET ([5]; 180-210 min): 2.7 μCi/mL
striatum uptake ([5]; PET): high striatum uptake; also recorded: region of highest uptake in the brain
striatal washout / time course of uptake ([6]; awake rhesus monkey, decay corrected): very little if any washout; also recorded: appears constant at 115 minutes post injection
initial uptake in striatum and cerebellum ([6]; awake rhesus monkeys): high initial uptake in the striatum and very little uptake in the cerebellum
displacement from striatum by β-CIT [7]: striatal washout; also recorded: significant reduction of activity in the striatum
displacement from striatum by β-CIT ([7]; listed as FBCINT): exhibited reversibility
washout half-time on displacement by β-CIT ([7]; β-CIT 0.9 μmol/kg i.v. at 195 minutes p.i.): 21 min
stability to metabolism and in vivo loss of fluorine-18 [8]: stable to metabolism and in vivo loss of the fluorine-18 radioisotope
Regional uptake of radioactivity, Cerebellum [9, 11]: 0.12 % dose/g
Regional uptake of radioactivity, Cortex (Cx) [9, 11]: 0.14 % dose/g
Regional uptake of radioactivity, Striatum [9, 11]: 0.15 % dose/g
Uptake of radioactivity, Blood [9, 11]: 0.12 % dose/g
Uptake of radioactivity, Brain [9, 11]: 0.12 % dose/g
effect of RTI-113 on uptake in the striatum [9]: significantly blocked
clearance from striatal tissue [10, 12]: 50%
Regional uptake of radioactivity, Cerebellum ([10]; 5 min): 0.52 % dose/g
Regional uptake of radioactivity, Cortex (Cx) ([10]; 5 min): 0.76 % dose/g
Regional uptake of radioactivity, Striatum ([10]; 5 min): 1.33 % dose/g
Uptake of radioactivity, Blood ([10]; 5 min): 0.14 % dose/g
Uptake of radioactivity, Bone ([10]; 5 min): 0.30 % dose/g
Uptake of radioactivity, Brain ([10]; 5 min): 0.66 % dose/g
Regional uptake of radioactivity, Cerebellum ([10]; 30 min): 0.19 % dose/g
Regional uptake of radioactivity, Cortex (Cx) ([10]; 30 min): 0.40 % dose/g
Regional uptake of radioactivity, Striatum ([10]; 30 min): 1.31 % dose/g
Uptake of radioactivity, Blood ([10]; 30 min): 0.16 % dose/g
Uptake of radioactivity, Bone ([10]; 30 min): 0.80 % dose/g
Uptake of radioactivity, Brain ([10]; 30 min): 0.29 % dose/g
Regional uptake of radioactivity, Cerebellum ([10]; 60 min): 0.10 % dose/g
Regional uptake of radioactivity, Cortex (Cx) ([10]; 60 min): 0.13 % dose/g
Regional uptake of radioactivity, Striatum ([10]; 60 min): 0.61 % dose/g
Uptake of radioactivity, Blood ([10]; 60 min): 0.10 % dose/g
Uptake of radioactivity, Bone ([10]; 60 min): 1.35 % dose/g
Uptake of radioactivity, Brain ([10]; 60 min): 0.14 % dose/g
Regional uptake of radioactivity, Cerebellum ([10]; 120 min): 0.13 % dose/g
Regional uptake of radioactivity, Cortex (Cx) ([10]; 120 min): 0.24 % dose/g
Regional uptake of radioactivity, Striatum ([10]; 120 min): 0.69 % dose/g
Uptake of radioactivity, Blood ([10]; 120 min): 0.13 % dose/g
Uptake of radioactivity, Bone ([10]; 120 min): 1.9 % dose/g
Uptake of radioactivity, Brain ([10]; 120 min): 0.17 % dose/g
Regional uptake of radioactivity, Striatum ([10]; 120 min, listed as [F-18]FBCINT): 2.5 % dose/g

COC(=O)[C@H]1[C@@H](c2ccc(F)cc2)C[C@@H]2CC[C@H]1N2C/C=C/CF [6e, N-((E)-4-fluorobut-2-en-1-yl)-2β-carbomethoxy-3β-(4-fluorophenyl)nortropane]
time at which transient equilibrium in the striatum was reached ([6]; awake rhesus monkey, post injection): 30 min and 20 min
early transient equilibrium at the striatal DAT ([6]; awake rhesus monkeys, PET): achieved an early transient equilibrium
Ki ([3]; [3H]WIN 35428 as reference, cells transfected with human DAT, read-out: DAT, Ki): 1.7 nM
effect of RTI-113 on uptake in the striatum [9]: significantly blocked
clearance from striatal tissue ([10]; at 60 minutes compared to 5 minutes post injection): 70%
clearance from striatal tissue [10, 12]: 85%
